Test results taken from patent publication US20040157866A1, “Amide compounds” (priority 2001, published 2004).

Columns and labels:
Apo B secretion = experiment: Test 1: Measurement of Inhibition of Apo B Secretion (HepG2 cells, ELISA); format: cell-based; conditions: 1 × 10^−8 M test compound, 15-hour incubation, 0.1% DMSO treated cells as controls; for inhibition at 0.01 µM: Homo sapiens
Method: Test 1: Measurement of Inhibition of Apo B Secretion
HepG2 cells were seeded in Eagles medium containing 10% fetal calf serum (FCS) at a density of 30000 cells/well in 96-well plates and allowed to grow for 3 days before treatment. At this time, the medium was replaced with fresh medium containing 0.1% dimethyl sulfoxide (DMSO) and the indicated concentrations of a test compound. After 15-hour incubation, the amount of Apo B and Apo AI accumulated in the media was determined by ELISA.
The assay was carried out at room temperature. A flat bottomed micro ELISA plate (manufactured by Nunc) was coated with an anti Apo B monoclonal antibody solution ([…] in 0.05% carbonate buffer, pH 9.6) by adding the antibody solution at a volume of 100 μl per well. After 1-hour incubation on a plate mixer, the unbound materials were removed by washing the well 3 times with a washing buffer (phosphate buffered saline, pH 7.2 containing 0.1% bovine serum albumin and 0.05% Tween-20). Then 20 μl of a solution of the test compound (dissolved in the culture medium) and 100 μl of a solution of peroxidase coupled anti Apo B antibody were added. After 1-hour incubation on a plate mixer, washing was performed 3 times to remove the unbound materials. A freshly prepared substrate solution (2.5 mg/ml ortho-phenylene diamine and 0.018% H2O2 in 0.11M Na2HPO4-0.044 M sodium citrate buffer, pH 5.4) at a volume of 200 μl was then added to each well. After 20-minute incubation, the enzyme reaction was terminated by adding 50 μl of 0.5 M sulfuric acid. Absorbance of each well was determined at 490 nm using a microplate reader. Apo B concentration was calculated from a standard curve generated from purified Apo B standard that was run in parallel in the same plate. Inhibition of Apo B secretion by the test compound is calculated taking 0.1% DMSO treated cells as controls.
Measurement of Apo AI was performed similar to that of Apo B, except for diluting the sample 11-fold with a dilution buffer (phosphate buffered saline, pH 7.2 containing 0.5% bovine serum albumin and 0.05% Tween-20).
Apo B secretion inhibitors are identified as compounds that decrease Apo B secretion without affecting the secretion of Apo AI.

ddY-mice = experiment: Test 2: Lipids Lowering Effect on ddY-Mice; format: in vivo; conditions: male ddY-mice, oral dose 10 mg/kg, relative to baseline; for Cholesterol (% of 0 hr) 2 hr: plasma total-cholesterol 2 hours after administration; for Triglyceride (% of 0 hr) 2 hr: plasma triglyceride 2 hours after administration
Excerpt: Test 2: Lipids Lowering Effect on ddY-Mice
Male ddY-mice were housed in temperature- and humidity-controlled rooms and fed with laboratory chow. The animals were randomized according to their body weight and deprived of food just before the experiment. A blood sample (baseline blood sample) was collected from the retro orbital venous plexus before administration of the test drug, and then the animals were orally dosed with the test drug in a vehicle (aqueous solution of 0.5% methylcellulose). Blood samples were drawn at 2 hours after drug administration for the measurement of cholesterol and triglyceride.
Plasma total-cholesterol and plasma triglyceride were determined by conventional enzyme methods using commercially available kits. The cholesterol CII-Test Wako (Wako Pure Chemical Industries, Ltd.) was used for the measurement of cholesterol, and the triglyceride E-test Wako (Wako Pure Chemical Industries, Ltd.) was used for the measurement of triglyceride.
Lipids lowering effects were shown in percent relative to the baseline level (level at 0 hr).

| SMILES | Inhibition of Apo B secretion at 1 × 10^−8 M (%) (Apo B secretion) | Cholesterol (% of 0 hr) 2 hr (ddY-mice) | Triglyceride (% of 0 hr) 2 hr (ddY-mice) | inhibition at 0.01 µM (Apo B secretion) [%] |
| --- | --- | --- | --- | --- |
| O=C(Nc1ccc2c(c1)CCN2C(=O)Cc1ccccn1)c1ccccc1-c1ccc(C(F)(F)F)cc1 [Example 4, N-[1-(2-Pyridinylacetyl)-2,3-dihydro-1H-indol-5-yl]-4′-(trifluoromethyl)-1,1′-biphenyl-2-carboxamide] | 92.0 | 75 % of 0 hr | 13 % of 0 hr | – |
| Cc1ccc(-c2cc(C)ccc2C(=O)Nc2ccc3c(c2)CCN3C(=O)Cc2ccccn2)cc1 [Example 11, 4′,5-Dimethyl-N-[1-(2-pyridinylacetyl)-2,3-dihydro-1H-indol-5-yl]-1,1′-biphenyl-2-carboxamide] | 97.2 | – | – | – |
| Nc1nc(CC(=O)N2CCc3cc(NC(=O)c4ccccc4-c4ccc(C(F)(F)F)cc4)ccc32)cs1 [Example 58, N-{1-[(2-amino-1,3-thiazol-4-yl)acetyl]-2,3-dihydro-1H-indol-5-yl}-4′-(trifluoromethyl)-1,1′-biphenyl-2-carboxamide] | – | – | – | 90.7 |
| O=C(Nc1ccc2c(c1)CCN2CCc1ccccn1)c1ccccc1-c1ccc(C(F)(F)F)cc1 [Example 1, N-{1-[2-(2-Pyridinyl)ethyl]-2,3-dihydro-1H-indol-5-yl}-4′-(trifluoromethyl)-1,1′-biphenyl-2-carboxamide] | – | 90 % of 0 hr | 13 % of 0 hr | 92.2 |
